Data set [1] relates to RAW264.7. Nature of the data set: Cytotoxicity against mouse RAW264.7 cells assessed as cell viability at 10 or 40 ug/ml measured after 24 hrs by WST assay. It counts as cell-based. The conditions noted are these: raw264.7, 24 h.
Data set [2] has as its system RAW264.7. Put plainly: Toxicity in mouse RAW264.7 cells assessed as in induction of Nitric oxide production at 10 or 40 ug/ml measured after 24 hrs by Griess reaction method. It counts as cell-based. To be noted: raw264.7, 24 h. For orientation: Griess reagent forms a coloured azo dye with nitrite.
Data set [3] concerns Mus musculus. Nature of the data set: Toxicity in mouse assessed as behavior changes at 40 mg/kg, ip after 7 days. It counts as organism-based. To be noted: in vivo, 168 h.
Data set [4] concerns Mus musculus. Put plainly: Toxicity in mouse assessed as aggressiveness at 40 mg/kg, ip after 12 hrs. It counts as organism-based. To be noted: in vivo.
Data set [5] concerns Mus musculus. Put plainly: Toxicity in mouse assessed as stiff tail at 40 mg/kg, ip after 12 hrs. To be noted: in vivo. The format is organism-based.
Data set [6] has as its system Mus musculus. Nature of the data set: Toxicity in mouse assessed as paralysis at 40 mg/kg, ip after 12 hrs. It counts as organism-based. To be noted: in vivo.
Data set [7] in a line: Thermal stability in Tris-acetate-EDTA buffer of pH 8.3 at 100 degC measured upto 12 hrs by reverse-phase HPLC analysis. It counts as physicochemical. The conditions noted are these: pH 8.3, 12 h.
Data set [8] in a line: Toxicity in human RBC assessed as hemolytic activity at 50 uM measured after 1 hr by spectrophotometric analysis. The format is cell-based, Erythrocyte. To be noted: erythrocyte, 1 h, 50 µM.
A short description of data set [9]: Cytotoxicity against rat Ac2F cells at 30 uM. It counts as cell-based.
The test system of data set [10] is Mus musculus. Put plainly: Toxicity in mouse assessed as appearance changes at 40 mg/kg, ip after 7 days. The format is organism-based. To be noted: in vivo, 168 h.
Data set [11] can be described thus: Toxicity in Thamnaconus modestus RBC assessed as hemolytic activity at 0.08 to 50 uM measured after 1 hr by spectrophotometric analysis. To be noted: erythrocyte. It counts as cell-based.
Data set [12] relates to Mus musculus. Put plainly: Toxicity in mouse assessed as convulusion at 40 mg/kg, ip after 12 hrs. It counts as organism-based. The conditions noted are these: in vivo.
Data set [13] deals with Mus musculus. Nature of the data set: Toxicity in mouse assessed as mortality at 40 mg/kg, ip after 7 days. The conditions noted are these: in vivo, 168 h. The format is organism-based.
Data set [14] is described as follows: Toxicity in human RBC assessed as hemolytic activity at 2 uM measured after 1 hr by spectrophotometric analysis. The format is cell-based. To be noted: erythrocyte.

Where a SMILES comes first, the peptide text is derived from it. Bridges are numbered along the chain shown (N, C = ends). [ ]: non-standard residue; d: D form. ξ: configuration not given here. pGlu = O=C1CC[C@@H](C(=O)O)N1; ξpGlu = O=C1CCC(C(=O)O)N1

As for `CC[C@H](C)[C@H](NC(=O)[C@@H](NC(=O)[C@H](Cc1ccc(O)cc1)NC(=O)[C@@H]1CSSC[C@@H]2NC(=O)[C@@H]3CCCN3C(=O)[C@H](CC(N)=O)NC(=O)[C@H](Cc3ccccc3)NC(=O)[C@H](CCC(=O)O)NC(=O)[C@H](C(C)C)NC(=O)[C@H](CC(=O)O)NC(=O)[C@@H]3CSSC[C@H](NC(=O)[C@H]([C@@H](C)O)NC(=O)[C@H](CC(C)C)NC(=O)[C@@H]4CCCN4C(=O)[C@@H]4CCCN4C(=O)[C@H](CSSC[C@H](NC(=O)[C@H](CC(=O)O)NC(=O)[C@@H]4CCC(=O)N4)C(=O)N4CCC[C@H]4C(=O)NCC(=O)N[C@@H](CCC(=O)O)C(=O)NCC(=O)N[C@@H](CCC(=O)O)C(=O)N[C@@H](CCC(N)=O)C(=O)N3)NC2=O)C(=O)N[C@@H]([C@@H](C)CC)C(=O)N2CCC[C@H]2C(=O)NCC(=O)N[C@@H](CC(=O)O)C(=O)N2CCC[C@H]2C(=O)N[C@@H](Cc2ccc(O)cc2)C(=O)NCC(=O)N[C@@H]([C@@H](C)CC)C(=O)N1)[C@@H](C)CC)C(=O)O` ([pGlu]DCPGEGEQCDVEFNPCCPPLTCIPGDPYGICYII-OH; disulfide 3-18, 10-23, 17-32), the Activity result in the data set with RAW264.7 [1], in the data set on RAW264.7 [2], in the data set on Mus musculus [3], in the data set on Mus musculus [4], with Mus musculus [5] and with Mus musculus [6] was “Non-toxic” in each case. Also, the Activity entry (in data set [8]; in [9]; with Mus musculus [10]; in data set [11]; in the data set with Mus musculus [12]; in the data set with Mus musculus [13]) was “Non-toxic” throughout. In addition, the Stability entry in data set [7] is “Stable”.

Consider `CC[C@H](C)[C@@H]1NC(=O)[C@@H]2CSSC[C@@H]3NC(=O)[C@H](CO)NC(=O)[C@H](CCC(=O)O)NC(=O)CNC(=O)[C@H](CCC(=O)O)NC(=O)[C@H](Cc4ccccc4)NC(=O)[C@H](C)NC(=O)[C@@H](NC(=O)CNC(=O)C4CCC(=O)N4)CSSC[C@H](NC(=O)[C@H](CSSC[C@@H](C(=O)N[C@@H](Cc4ccc(O)cc4)C(=O)N[C@@H](Cc4ccc(O)cc4)C(=O)N[C@@H](CC(C)C)C(=O)O)NC(=O)[C@H]([C@@H](C)O)NC(=O)CNC(=O)[C@H](CC(=O)O)NC(=O)[C@@H]4CCCN4C(=O)[C@H](CC(N)=O)NC(=O)CNC(=O)[C@@H]4CCCN4C1=O)NC(=O)[C@@H]1CCCN1C(=O)[C@H](Cc1ccc(O)cc1)NC(=O)[C@H](Cc1ccccc1)NC(=O)[C@H](CCC(N)=O)NC(=O)[C@H](C(C)C)NC(=O)[C@H](CC(N)=O)NC3=O)C(=O)N1CCC[C@H]1C(=O)NCC(=O)N[C@@H](CC(C)C)C(=O)NCC(=O)N[C@@H](CC(C)C)C(=O)N[C@@H]([C@@H](C)O)C(=O)N2` (stereo partly specified) ([ξpGlu]GCAFEGESCNVQFYPCCPGLGLTCIPGNPDGTCYYL-OH; disulfide 3-18, 10-25, 17-34), for which the Activity result in the data set with RAW264.7 [1], with RAW264.7 [2], in the data set on Mus musculus [3], with Mus musculus [4], in the data set with Mus musculus [5] and in the data set on Mus musculus [6] was “Non-toxic” throughout. The Activity entry (in [8]; with Mus musculus [10]; in data set [11]; in the data set with Mus musculus [12]; in the data set with Mus musculus [13]) was “Non-toxic” each time. Also, in [7], the Stability entry was “Stable”.

With `CC[C@H](C)[C@H](NC(=O)CN)C(=O)NCC(=O)N[C@@H](C)C(=O)N[C@H](C(=O)N[C@@H](CC(C)C)C(=O)N[C@@H](CCCCN)C(=O)N[C@H](C(=O)N[C@@H](CC(C)C)C(=O)N[C@H](C(=O)N[C@H](C(=O)NCC(=O)N[C@@H](CC(C)C)C(=O)N1CCC[C@H]1C(=O)N[C@@H](C)C(=O)N[C@@H](CC(C)C)C(=O)N[C@H](C(=O)N[C@@H](CO)C(=O)N[C@@H](Cc1c[nH]c2ccccc12)C(=O)N[C@H](C(=O)N[C@@H](CCCCN)C(=O)N[C@@H](CCCNC(=N)N)C(=O)N[C@@H](CCCCN)C(=O)N[C@@H](CCCNC(=N)N)C(=O)N[C@@H](CCC(N)=O)C(=O)N[C@@H](CCC(N)=O)C(N)=O)[C@@H](C)CC)[C@@H](C)CC)[C@@H](C)O)[C@@H](C)O)C(C)C)C(C)C` [MELITTIN], the Activity entry in [14] is reported as “Toxic”.

Source of the values: ChEMBL document CHEMBL3808389, “Stable and biocompatible cystine knot peptides from the marine sponge Asteropus sp” (Bioorg Med Chem, 2016).
